One assay relates to GP2D (KRAS G12D) cells. The assay is described as follows: 2D cell viability assay (CellTiter-Glo). As to conditions: 4 days. It counts as cell-based. In a few lines: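 Viability was read by CellTiter-Glo after 4 days at 37 °C of 2D culture of KRAS G12D GP2D cells (1000/well, RPMI, 10% FBS) on pre-spotted threefold compound dilutions. EC50 was fitted with a sigmoidal dose-response model as the point of half-maximal luminescence loss.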

The next assay concerns the target GDP-loaded KRAS G12D (Homo sapiens (Human), UniProt P01116, G12D). The assay is described as follows: KRAS G12D (GDP) biochemical assay (TR-FRET probe displacement). As to conditions: 2 hours. It counts as binding. Summed up: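 TR-FRET probe displacement: 1:3 DMSO serial dilutions pre-incubated 30 min with GDP-bound KRAS G12D, followed by Eu-streptavidin/probe for 2 h at room temperature (Hepes pH 7.4, NaCl, MgCl2, Tween-20 buffer). IC50 defined as concentration halving TR-FRET ratio, from sigmoidal dose-response fit.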
(TR-FRET usually uses a lanthanide donor and a delayed reading to cut background.)

A further assay has as its system AsPC-1 (KRAS G12D) cells. The assay is described as follows: 3D cell viability assay (spheroids, CellTiter-Glo 3D). It counts as cell-based. As to conditions: AsPC-1 cells, 3D spheroids, 4 days. In a few lines: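 AsPC-1 cells (1000/well) in DMEM with 10% FBS formed spheroids over 3 days at 37 °C in ultra-low attachment plates, then were treated with 1:3 serial dilutions for 4 days. Viability read by CellTiter-Glo 3D luminescence; EC50 as concentration giving 50% signal decrease, sigmoidal fit.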
A general note: Cellular ATP, detected with luciferase, serves as a proxy for viable cell number.

Sequence of GDP-loaded KRAS G12D (P01116-2 other isoform, or with tags, fused parts or gaps G12D): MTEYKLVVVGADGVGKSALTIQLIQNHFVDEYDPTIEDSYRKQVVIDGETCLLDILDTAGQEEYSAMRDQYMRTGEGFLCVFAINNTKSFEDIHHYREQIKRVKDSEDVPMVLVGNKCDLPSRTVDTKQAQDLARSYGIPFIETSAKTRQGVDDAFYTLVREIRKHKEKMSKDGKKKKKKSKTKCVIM

What is called EC50 is the concentration at which the effect is half-maximal. A low value points to higher potency in that assay. In general, IC50 refers to the point on the concentration scale where inhibition reaches its midpoint. Higher therefore signals weaker potency. On to `C#Cc1c(F)ccc2cccc(-c3nc4c5c(nc(OC[C@@]67CCCN6[C@H](COC(C)(C)C)CC7)nc5c3F)N3C[C@H]5CC[C@H](N5)[C@H]3CC4)c12` [Example 119, (5aR,6S,9R)-12-(((3S,7aS)-3-(tert-butoxymethyl)tetrahydro-1H-pyrrolizin-7a(5H)-yl)methoxy)-2-(8-ethynyl-7-fluoronaphthalen-1-yl)-1-fluoro-4,5,5a,6,7,8,9,10-octahydro-3,10a,11,13,14-pentaaza-6,9-methanonaphtho[1,8-ab]heptalene], for which the EC50 in the assay on GP2D (KRAS G12D) cells (GP2d, 96 h) was 125 nM; with AsPC-1 (KRAS G12D) cells (Homo sapiens, ASPC1, 96 h), 390 nM. Besides, on GDP-loaded KRAS G12D, the IC50 was 2.4 nM.

As for `C#Cc1c(F)ccc2cc(O)cc(-c3nc4c5c(nc(OC[C@@]67CCCN6C[C@@]6(CC6(F)F)C7)nc5c3F)N3C[C@H]5CC[C@H](N5)[C@H]3CC4)c12` [Example 122, 4-((5aR,6S,9R)-12-(((1S,7a'S)-2,2-difluorodihydro-1′H,3′H-spiro[cyclopropane-1,2′-pyrrolizin]-7a′(5′H)-yl)methoxy)-1-fluoro-4,5,5a,6,7,8,9,10-octahydro-3,10a,11,13,14-pentaaza[6,9]methanonaphtho[1,8-ab]heptalen-2-yl)-5-ethynyl-6-fluoronaphthalen-2-ol], the EC50 was 0.1 nM with GP2D (KRAS G12D) cells (GP2d, 96 h) and 2.9 nM in the assay on AsPC-1 (KRAS G12D) cells (Homo sapiens, ASPC1, 96 h). Further, the IC50 at GDP-loaded KRAS G12D was under 0.1 nM.

As for `C#Cc1c(F)ccc2cc(O)cc(-c3nc4c5c(nc(OC[C@@]67CCCN6C[C@H](F)C7)nc5c3F)N3C[C@H]5CC[C@H](N5)[C@H]3CCO4)c12` [Example 123, 5-ethynyl-6-fluoro-4-((6aR,7S,10R)-1-fluoro-13-(((2R,7aS)-2-fluorotetrahydro-1H-pyrrolizin-7a(5H)-yl)methoxy)-5,6,6a,7,8,9,10,11-octahydro-4-oxa-3,11a,12,14,15-pentaaza-7,10-methanocyclohepta[4,5]cycloocta[1,2,3-de]naphthalen-2-yl)naphthalen-2-ol], the EC50 is 0.5 nM in the assay on GP2D (KRAS G12D) cells (GP2d, 96 h) and 3 nM in the assay on AsPC-1 (KRAS G12D) cells (Homo sapiens, ASPC1, 96 h). At GDP-loaded KRAS G12D, this compound yielded an IC50 of under 0.1 nM.

In the case of `C#Cc1c(F)ccc2cccc(-c3nc4c5c(nc(OC[C@@]67CCCN6C[C@H](F)C7)nc5c3F)N3C[C@H]5CC[C@H](N5)[C@H]3CCO4)c12` [Example 124, (6aR,7S,10R)-2-(8-ethynyl-7-fluoronaphthalen-1-yl)-1-fluoro-13-(((2R,7aS)-2-fluorotetrahydro-1H-pyrrolizin-7a(5H)-yl)methoxy)-5,6,6a,7,8,9,10,11-octahydro-4-oxa-3,11a,12,14,15-pentaaza-7,10-methanocyclohepta[4,5]cycloocta[1,2,3-de]naphthalene], the EC50 stood at 26 nM in the assay on GP2D (KRAS G12D) cells (GP2d, 96 h) and 81 nM in the assay with AsPC-1 (KRAS G12D) cells (Homo sapiens, ASPC1, 96 h). The IC50 at GDP-loaded KRAS G12D worked out at 0.5 nM.

As for `CCc1c(F)ccc2cc(O)cc(-c3cc4c5c(nc(OC[C@@]67CCCN6C[C@H](F)C7)nc5c3F)N3C[C@H]5CC[C@H](N5)[C@H]3CC4)c12` [Example 128, 5-ethyl-6-fluoro-4-((1S,4R,14aR)-10-fluoro-8-(((2R,7aS)-2-fluorotetrahydro-1H-pyrrolizin-7a(5H)-yl)methoxy)-1,2,3,4,5,13,14,14a-octahydro-1,4-epiminoazepino[1′,2′:1,7]azepino[2,3,4-de]quinazolin-11-yl)naphthalen-2-ol], the EC50 with GP2D (KRAS G12D) cells (GP2d, 96 h) was 4.1 nM; with AsPC-1 (KRAS G12D) cells (Homo sapiens, ASPC1, 96 h) it was 59 nM. Moreover, the concentration for half-maximal inhibition (IC50) on GDP-loaded KRAS G12D worked out at 0.2 nM.

Consider `C#Cc1c(F)ccc2cc(O)cc(-c3nc4c5c(nc(OC[C@@]67CCCN6C[C@H](F)C7)nc5c3F)N3C[C@H]5CC[C@H](N5)[C@@H]3CCC4)c12` [Example 132, 5-ethynyl-6-fluoro-4-((6aS,7S,10R)-1-fluoro-13-(((2R,7aS)-2-fluorotetrahydro-1H-pyrrolizin-7a(5H)-yl)methoxy)-5,6,6a,7,8,9,10,11-octahydro-4H-3,11a,12,14,15-pentaaza-7,10-methanocyclohepta[4,5]cycloocta[1,2,3-de]naphthalen-2-yl)naphthalen-2-ol], for which the EC50 with GP2D (KRAS G12D) cells (GP2d, 96 h) was 2.2 nM; in the assay on AsPC-1 (KRAS G12D) cells (Homo sapiens, ASPC1, 96 h), 50 nM. The compound further came in with an IC50 on GDP-loaded KRAS G12D of 0.2 nM.

As for `C#Cc1c(F)ccc2cc(O)cc(-c3nc4c5c(nc(OC[C@@]67CCCN6CC(OC(F)(F)F)C7)nc5c3F)N3C[C@H]5CC[C@H](N5)[C@H]3CC4)c12` (stereo partly drawn) [Example 139, 5-ethynyl-6-fluoro-4-((5aR,6S,9R)-1-fluoro-12-((cis-2-(trifluoromethoxy)tetrahydro-1H-pyrrolizin-7a(5H)-yl)methoxy)-4,5,5a,6,7,8,9,10-octahydro-3,10a,11,13,14-pentaaza-6,9-methanonaphtho[1,8-ab]heptalen-2-yl)naphthalen-2-ol], the EC50 in the assay with GP2D (KRAS G12D) cells (GP2d, 96 h) amounted to 0.6 nM; in the assay with AsPC-1 (KRAS G12D) cells (Homo sapiens, ASPC1, 96 h), 4.2 nM. The same compound returned an IC50 at GDP-loaded KRAS G12D of 0.1 nM.

Regarding `C#Cc1c(F)ccc2cc(O)cc(-c3nc4c5c(nc(OCC6(CN7CCC(COC(C(F)(F)F)(C(F)(F)F)C(F)(F)F)CC7)CC6)nc5c3F)N3C[C@H]5CC[C@H](N5)[C@H]3CC4)c12` [Example 143, 5-ethynyl-6-fluoro-4-((5aR,6S,9R)-1-fluoro-12-((1-((4-(((1,1,1,3,3,3-hexafluoro-2-(trifluoromethyl)propan-2-yl)oxy)methyl)piperidin-1-yl)methyl)cyclopropyl)methoxy)-4,5,5a,6,7,8,9,10-octahydro-3,10a,11,13,14-pentaaza-6,9-methanonaphtho[1,8-ab]heptalen-2-yl)naphthalen-2-ol], the EC50 came out at 3.1 nM in the assay on GP2D (KRAS G12D) cells (GP2d, 96 h) and 110 nM with AsPC-1 (KRAS G12D) cells (Homo sapiens, ASPC1, 96 h). Moreover, the IC50 at GDP-loaded KRAS G12D turned out to be 1.9 nM.

Take `C#Cc1c(F)ccc2cc(O)cc(-c3nc4c5c(nc(OC[C@@]67CCCN6[C@H](COC(C6CC6)C(F)(F)F)CC7)nc5c3F)N3C[C@H]5CC[C@H](N5)[C@H]3CC4)c12` (stereo partly drawn) [Example 147, 4-((5aR,6S,9R)-12-(((3S,7aS)-3-((1-cyclopropyl-2,2,2-trifluoroethoxy)methyl)tetrahydro-1H-pyrrolizin-7a(5H)-yl)methoxy)-1-fluoro-4,5,5a,6,7,8,9,1O-octahydro-3,10a,11,13,14-pentaaza-6,9-methanonaphtho[1,8-ab]heptalen-2-yl)-5-ethynyl-6-fluoronaphthalen-2-ol]: the figures for the EC50 in the assay on GP2D (KRAS G12D) cells and with AsPC-1 (KRAS G12D) cells were 1.3 nM and 19 nM, respectively. This compound registered an IC50 on GDP-loaded KRAS G12D of under 0.1 nM.

With `C#Cc1c(F)ccc2cc(O)cc(-c3nc4c5c(nc(OC[C@@]67CCCN6[C@H](COc6ccnc(C(F)(F)F)n6)CC7)nc5c3F)N3C[C@H]5CC[C@H](N5)[C@H]3CC4)c12` [Example 148, 5-ethynyl-6-fluoro-4-((5aR,6S,9R)-1-fluoro-12-(((3S,7aS)-3-(((2-(trifluoromethyl)pyrimidin-4-yl)oxy)methyl)tetrahydro-1H-pyrrolizin-7a(5H)-yl)methoxy)-4,5,5a,6,7,8,9,1O-octahydro-3,10a,11,13,14-pentaaza-6,9-methanonaphtho[1,8-ab]heptalen-2-yl)naphthalen-2-ol], the EC50 in the assay with GP2D (KRAS G12D) cells (GP2d, 96 h) is 0.7 nM; in the assay on AsPC-1 (KRAS G12D) cells (Homo sapiens, ASPC1, 96 h) it was 7.7 nM. Also, the IC50 on GDP-loaded KRAS G12D came out at 0.1 nM.

For the compound `C#Cc1c(F)ccc2cc(O)cc(-c3nc4c5c(nc(OC[C@@]67CCCN6[C@H](COc6cnc(C(F)(F)F)cn6)CC7)nc5c3F)N3C[C@H]5CC[C@H](N5)[C@H]3CC4)c12` [Example 155, 5-ethynyl-6-fluoro-4-((5aR,6S,9R)-1-fluoro-12-(((3S,7aS)-3-(((5-(trifluoromethyl)pyrazin-2-yl)oxy)methyl)tetrahydro-1H-pyrrolizin-7a(5H)-yl)methoxy)-4,5,5a,6,7,8,9,10-octahydro-3,10a,11,13,14-pentaaza-6,9-methanonaphtho[1,8-ab]heptalen-2-yl)naphthalen-2-ol], the EC50 is 0.3 nM in the assay on GP2D (KRAS G12D) cells (GP2d, 96 h) and 5.2 nM with AsPC-1 (KRAS G12D) cells (Homo sapiens, ASPC1, 96 h). Besides, the IC50 at GDP-loaded KRAS G12D amounted to 0.1 nM.

Values taken from US20230339981A1, “KRAS G12D MODULATING COMPOUNDS” (priority 2022, published 2023).
